Measurements as given in ChEMBL document CHEMBL5335769, “Design, synthesis and biological evaluation of novel diarylacylhydrazones derivatives for the efficient treatment of idiopathic pulmonary fibrosis” (Eur J Med Chem, 2023).
Values after ≈ are worked out from the molar mass of the structure shown. Active and inactive are the calls of the source. The rule behind the calls is not given here.

Legend:
[1] = system: NIH3T3; experiment: Antiproliferative activity against NIH3T3 cells at 10 uM after 72 hrs by MTT assay; format: functional, Mus musculus
[2] = Aqueous solubility of compound incubated for 1 hr by HPLC analysis; format: physicochemical
[3] = biological target: Signal transducer and activator of transcription 3 (Homo sapiens) (UniProt P40763); experiment: Binding affinity to STAT3 in […] cells assessed as STAT3 stabilization incubated for 1 hr by CETSA; format: cell-based; conditions: NIH3T3
[4] = system: NIH3T3; experiment: Inhibition of TGF-beta1 induced NIH-3T3 cells activation assessed as effect on alpha-SMA at 6 uM preincubated with TGF-beta1 for 1 hr followed by compound addition and measured after 24 hrs by DAPI staining based fluorescence microscopic analysis; format: functional, cell-based; conditions: Mus musculus
[5] = system: NIH3T3; experiment: Inhibition of TGF-beta1 induced NIH-3T3 cells activation assessed as effect on collagen I at 6 uM preincubated with TGF-beta1 for 1 hr followed by compound addition and measured after 24 hrs by DAPI staining based fluorescence microscopic analysis; format: functional, cell-based; conditions: Mus musculus
[6] = system: NIH3T3; experiment: Inhibition of TGF-beta1 induced NIH-3T3 cells activation assessed as reduction in alpha-SMA level at 6 uM preincubated with TGF-beta1 for 1 hr followed by compound addition and measured after 24 hrs by DAPI staining based fluorescence microscopic analysis; format: functional, cell-based; conditions: Mus musculus
[7] = system: A549; experiment: Inhibition of TGF-beta1 induced epithelial-mesenchymal transition in human A549 cells assessed as reduction in E-cadherin protein level at 6 uM preincubated with TGF-beta1 for 1 hr followed by compound addition and measured after 24 hrs by immunofluorescence staining based analysis; format: functional, cell-based
[8] = Half life in Sprague-Dawley rat at 2 mg/kg, iv measured upto 24 hrs; format: ADME, organism-based; conditions: in vivo
[9] = Half life in Sprague-Dawley rat at 20 mg/kg, po measured upto 24 hrs; format: ADME, organism-based; conditions: in vivo
[10] = system: Mus musculus; experiment: Anti-fibrotic activity in bleomycin-induced C57BL/6 mouse model of pulmonary fibrosis assessed as reduction in lung pathological features at 30 to 60 mg/kg, po pretreated with bleomycin for 1 day followed by compound addition once daily for 22 days by H and E staining based analysis; format: functional, organism-based; conditions: dose 30-60 mg/kg, time 22.0 day
[11] = system: Mus musculus; experiment: Anti-fibrotic activity in bleomycin-induced C57BL/6 mouse model of pulmonary fibrosis assessed as reduction in collagen I level at 30 to 60 mg/kg, po pretreated with bleomycin for 1 day followed by compound addition once daily for 22 days by immunohistochemical analysis; format: functional, organism-based; conditions: dose 30-60 mg/kg, time 22.0 day
[12] = system: Mus musculus; experiment: Anti-fibrotic activity in bleomycin-induced C57BL/6 mouse model of pulmonary fibrosis assessed as […] in E-Cadherin expression level at 30 to 60 mg/kg, po pretreated with bleomycin for 1 day followed by compound addition once daily for 22 days by Western blot analysis; format: functional, organism-based; conditions: dose 30-60 mg/kg, time 22.0 day
[13] = system: Mus musculus; experiment: Anti-fibrotic activity in bleomycin-induced C57BL/6 mouse model of pulmonary fibrosis assessed as reduction in p-STAT3 level at 30 to 60 mg/kg, po pretreated with bleomycin for 1 day followed by compound addition once daily for 22 days by immunohistochemical analysis; format: functional, organism-based; conditions: dose 30-60 mg/kg, time 22.0 day
[14] = Toxicity in C57BL/6 mouse assessed as effect on spleen tissue at 30 to 60 mg/kg, po administered once daily; format: organism-based; conditions: in vivo, dose 30-60 mg/kg
[15] = system: Mus musculus; experiment: Anti-fibrotic activity in bleomycin-induced C57BL/6 mouse model of pulmonary fibrosis assessed as reduction in ratio of dendritic cells at 30 mg/kg, po administered once daily by flow cytometry analysis (reference value: 20.21%); format: functional; parameters: scale not given: the % may be the effect or the level left
[16] = system: Mus musculus; experiment: Anti-fibrotic activity in bleomycin-induced C57BL/6 mouse model of pulmonary fibrosis assessed as reduction in ratio of CD69+CD4+ T cells at 30 mg/kg, po administered once daily by flow cytometry analysis (reference value: 9.05%); format: functional, T-cell; parameters: scale not given: the % may be the effect or the level left
[17] = system: Mus musculus; experiment: Anti-fibrotic activity in bleomycin-induced C57BL/6 mouse model of pulmonary fibrosis assessed as reduction in ratio of macrophage cells at 60 mg/kg, po administered once daily by flow cytometry analysis (reference value: 21.51%); format: functional; parameters: scale not given: the % may be the effect or the level left
[18] = system: Mus musculus; experiment: Anti-fibrotic activity in bleomycin-induced C57BL/6 mouse model of pulmonary fibrosis assessed as reduction in pathological lesions at 60 mg/kg, po pretreated with bleomycin followed by compound addition once daily on day 7 to 14 by H and E staining based analysis; format: functional, organism-based; conditions: time 7.0 day
[19] = system: Mus musculus; experiment: Anti-fibrotic activity in bleomycin-induced C57BL/6 mouse model of pulmonary fibrosis assessed as reduction in collagen I level at 60 mg/kg, po pretreated with bleomycin followed by compound addition once daily on day 7 to 14; format: functional, organism-based; conditions: time 7.0 day
[20] = system: Mus musculus; experiment: Anti-fibrotic activity in bleomycin-induced C57BL/6 mouse model of pulmonary fibrosis assessed as reduction in p-STAT3 level at 60 mg/kg, po pretreated with bleomycin followed by compound addition once daily on day 7 to 14; format: functional, organism-based; conditions: time 7.0 day
[21] = system: Mus musculus; experiment: Anti-fibrotic activity in bleomycin-induced C57BL/6 mouse model of pulmonary fibrosis assessed as reduction in ratio of dendritic cells at 60 mg/kg, po pretreated with bleomycin followed by compound addition once daily on day 7 to 14 by flow cytometry analysis (reference value: 19.42%); format: functional; parameters: scale not given: the % may be the effect or the level left; conditions: time 7 day

Signal transducer and activator of transcription 3 (Homo sapiens), sequence (P40763 whole entry): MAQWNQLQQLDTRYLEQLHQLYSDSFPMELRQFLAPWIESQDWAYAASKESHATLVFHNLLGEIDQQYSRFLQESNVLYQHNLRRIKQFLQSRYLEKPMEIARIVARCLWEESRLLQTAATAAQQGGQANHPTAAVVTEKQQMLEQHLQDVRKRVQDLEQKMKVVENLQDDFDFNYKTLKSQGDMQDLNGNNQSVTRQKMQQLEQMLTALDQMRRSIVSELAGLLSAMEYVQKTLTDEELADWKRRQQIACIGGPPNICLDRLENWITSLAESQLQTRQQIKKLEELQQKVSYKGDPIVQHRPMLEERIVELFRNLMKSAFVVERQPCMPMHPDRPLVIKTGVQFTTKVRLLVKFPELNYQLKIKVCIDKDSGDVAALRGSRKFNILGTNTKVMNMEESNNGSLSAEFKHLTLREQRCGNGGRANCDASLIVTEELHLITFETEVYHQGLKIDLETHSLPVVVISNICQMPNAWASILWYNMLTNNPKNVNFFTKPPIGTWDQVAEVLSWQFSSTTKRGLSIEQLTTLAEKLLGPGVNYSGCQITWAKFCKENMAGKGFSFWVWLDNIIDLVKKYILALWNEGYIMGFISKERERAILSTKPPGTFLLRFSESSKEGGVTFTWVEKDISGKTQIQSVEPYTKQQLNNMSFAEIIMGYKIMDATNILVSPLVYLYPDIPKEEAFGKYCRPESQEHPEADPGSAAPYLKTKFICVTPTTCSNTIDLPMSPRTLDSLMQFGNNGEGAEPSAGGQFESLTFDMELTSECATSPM

O=C(N/N=C/c1ccc([N+](=O)[O-])s1)c1ccc(OCCCCCCN2CCCCC2)cc1
Activity [1]: 81.88%
solubility at 1 h [2]: 390 µg/mL (≈ 850 µM)
Activity [3]: Active
inhibition [4]: Active
inhibition [5]: Active
inhibition [6]: Active
inhibition [7]: Active
half-life [8]: 0.93 h
half-life [9]: 1.23 h
Activity [10]: Active
Activity [11]: Active
Activity [12]: Active
Activity [13]: Active
Activity [14]: Non-Toxic
Activity [15]: 4.59%
Activity [16]: 4.59%
Activity [17]: 3.45%
Activity [18]: Active
Activity [19]: Active
Activity [20]: Active
Activity [21]: 3.84%
